{"source": "patent US20190358201A1", "about": "(NantCell, Inc., priority 2018, published 2019)", "key": {"[1]": {"details": "cited from earlier work"}, "[2]": {"assay": "Formation of doxorubicinol metabolite and pharmacokinetics after administration", "details": "after administration to patients"}, "[3]": {"assay": "LVEF changes, Phase 2 study (INNO-206-P2-STS-01)", "format": "in vivo, human", "details": "for Subjects with LVEF < 50% at any post-baseline cycle / Subjects with a 10% fall in LVEF: Phase 2, doxorubicin median 4 cycles of 75 mg/m^2 (N 40), aldoxorubicin median 6 cycles of 350 mg/m^2 (N 83)"}, "[4]": {"assay": "Sensitivity and worst-case sensitivity analysis of PFS, aldoxorubicin vs doxorubicin (ITT population, independent assessment)", "format": "in vivo, human", "details": "for HR (95% CI): stratified Cox regression; for PFS Events: 42 doxorubicin / 84 aldoxorubicin patients", "description": "Sensitivity Analysis: To assess the impact of censoring the 8 patients with no baseline imaging at the date of randomization, a sensitivity analysis was conducted where a PFS event was imputed at the date of randomization. This analysis is presented in Table 1 showing the sensitivity analysis of PFS (ITT Population^a).\n(§1) PFS is defined as the time from randomization to the date of first objective documentation of disease progression or death (any cause), whichever comes first. CI=Confidence interval; ECOG=Eastern Cooperative Oncology Group; HR=Hazard ratio; PFS=Progression-free survival; PS=Performance status. ^a The ITT Population comprised all randomized patients. ^bP-value is from stratified log-rank test with ECOG PS (0 to 1, 2) and chemotherapy (no prior chemotherapy or prior adjuvant/neoadjuvant chemotherapy) as stratification factors. Hazard ratio and 95% CI are from a Cox regression model stratified by ECOG PS (0 1, 2) and chemotherapy (no prior chemotherapy or prior adjuvant/neoadjuvant chemotherapy).\nThis analysis is presented in Table 2 (Worst-Case Sensitivity Analysis of PFS (ITT population^a)).\nas §1, with “status. ^aThe” for “status. ^a The”, “randomized patients.^b P-value” for “randomized patients. ^bP-value”, “is based on a” for “is from”"}, "[5]": {"assay": "Tolerability of higher total cumulative doses of aldoxorubicin in patients", "format": "in vivo, human", "description": "Based on the results above, the inventors investigated whether even higher total cumulative doses of aldoxorubicin could be tolerated. To that end, patients were administered total cumulative dosages of up to 3,000 mg/m^2, up to 4,000 mg/m^2, up to 5,000 mg/m^2, up to 6,000 mg/m^2, up to 7,000 mg/m^2, up to 8,000 mg/m^2, up to 9,000 mg/m^2, up to 10,000 mg/m^2, up to 11,000 mg/m^2, up to 12,000 mg/m^2, up to 13,000 mg/m^2, up to 14,000 mg/m^2, and even higher. […] As described herein, cardiotoxicity may be monitored by monitoring the level of metabolite doxorubicinol in the cardiac cells. Suitable cumulative dosages of aldoxorubicin include those that will not adversely affect LVEF. As such, LVEF of patients receiving aldoxorubicin will typically be in the range of 55% to 70%. Thus, in some embodiments, the patients may have LVEF of 55%-60%, or 60%-65%, or 65%-70%. Less preferably, aldoxorubicin may be administered to the patient until reaching a slightly lower than normal LVEF, say between 50%-54%, or 45%-50%, or 40%-45%."}, "[6]": {"assay": "Alopecia induction in patients", "format": "in vivo, human", "details": "aldoxorubicin administered instead of doxorubicin"}, "[7]": {"assay": "Cardiac function by 2D echocardiogram in patients treated for at least 6 cycles of aldoxorubicin (Phase 1/2 with ifosfamide/mesna and Phase 3 alone)", "format": "in vivo, human", "description": "Fifty-two patients enrolled in a Phase 1/2 study of aldoxorubicin and ifosfamide/mesna and a Phase 3 study using aldoxorubicin alone were treated for at least 6 cycles of aldoxorubicin at either 250 mg/m^2 or 350 mg/m^2 per dose i. v. every 3 weeks. Cardiac function using 2D echocardiogram was evaluated at regular intervals every two cycles of aldoxorubicin until end of treatment and every six months after completion of the treatment.\nAfter treatment, the cumulative aldoxorubicin dose for these patients ranged from […] to 7,500 mg/m^2. […] Ventricular ejection fractions ranged from 45-74% baseline, and 50-77% at end of treatment, median being 60% both at the beginning and end of treatment. Therefore, it should be appreciated that aldoxorubicin lacks cardiotoxicity in these patients treated with aldoxorubicin, alone or in combination with ifosfamide/mesna."}, "soft tissue sarcoma": {"tested_on": "soft tissue sarcoma", "details": "vs investigator's choice, entire study population; p=0.12, 95% CI 0.64-1.06; cited from earlier work"}, "[8]": {"assay": "LVEF changes, Phase 3 study (P3-STS-01)", "format": "in vivo, human"}, "[9]": {"details": "sensitivity analysis of PFS, text to Table 1 / FIG. 2"}, "[10]": {"details": "sensitivity analysis, PFS event imputed at randomization for 8 patients without baseline imaging, ITT, independent assessment"}, "[11]": {"details": "sensitivity analysis, ITT, independent assessment"}, "[12]": {"details": "worst-case sensitivity analysis, PFS event imputed at date of censoring, ITT"}, "[13]": {"details": "worst-case sensitivity analysis, ITT, independent assessment"}, "[14]": {"details": "Phase 3, doxorubicin N 47, aldoxorubicin N 213"}}}
{"smiles": "COc1cccc2c1C(=O)c1c(O)c3c(c(O)c1C2=O)C[C@@](O)(/C(CO)=N/NC(=O)CCCCCN1C(=O)C=CC1=O)C[C@@H]3O[C@H]1C[C@H](N)[C@H](O)[C@H](C)O1", "note": "[Aldoxorubicin, (6-maleimidocaproyl) hydrazone derivative of doxorubicin]", "values": [{"measurement": "Recommended doxorubicin equivalent dose", "setting": "[1]; Clin Cancer Res 2007, 13(16)", "value": 260, "unit": "mg/m^2"}, {"measurement": "Formation of doxorubicinol", "setting": "[2]", "value": "no detectable doxorubicinol"}, {"measurement": "Formation of doxorubicinol", "setting": "[2]; listed as doxorubicin after modification with N-c-maleimidocaproic acid hydrazide", "value": "did not lead to significant quantities of doxorubicinol"}, {"measurement": "Decreases in LVEF (MUGA or echocardiogram)", "setting": "[3]; Phase 2, aldoxorubicin treatment group", "value": "no clinically relevant decreases in LVEF were observed"}, {"measurement": "Subjects with LVEF < 50% at any post-baseline cycle", "setting": "[3]", "value": "0 n (%)"}, {"measurement": "Subjects with a 10% fall in LVEF", "setting": "[3]", "value": "9 (12.2) n (%)"}, {"measurement": "Median PFS", "setting": "[4]; [9]", "value": 170, "unit": "days"}, {"measurement": "HR as stated in text", "setting": "[4]; sensitivity analysis of PFS, aldoxorubicin vs doxorubicin, p=0.032, 95% CI [0.38, 0.95]", "value": 0.60}, {"measurement": "HR (95% CI)", "setting": "[4]; sensitivity analysis of PFS, aldoxorubicin vs doxorubicin", "value": "0.60 (0.38, 0.95)"}, {"measurement": "PFS Events", "setting": "[4]; [10]", "value": 52}, {"measurement": "Median PFS", "setting": "[4]; [11]", "value": 132.0, "unit": "days"}, {"measurement": "HR (95% CI)", "setting": "[4]; worst-case sensitivity analysis of PFS, aldoxorubicin vs doxorubicin", "value": "0.63 (0.43, 0.93)"}, {"measurement": "PFS Events", "setting": "[4]; [12]", "value": 84}, {"measurement": "Median PFS", "setting": "[4]; [13]", "value": 88.5, "unit": "days"}, {"measurement": "Cardiotoxicity", "setting": "[5]; cumulative dose equivalent to doxorubicin significantly more than 10× 550 mg/m^2", "value": "no or substantially reduced cardiotoxicity"}, {"measurement": "Cardiotoxicity", "setting": "[5]; patients, doxorubicin equivalent doses even beyond 3000 mg/m^2", "value": "no cardiotoxicity was observed"}, {"measurement": "Tolerability, cardiotoxicity and/or LVEF", "setting": "[5]; total cumulative doses of 14,000 mg/m^2", "value": "tolerated without any significant effect on cardiotoxicity and/or LVEF"}, {"measurement": "Alopecia induction", "setting": "[6]", "value": "minimal alopecia induction"}, {"measurement": "Ventricular ejection fraction, median", "setting": "[7]; both at the beginning and end of treatment", "value": 60, "unit": "%"}, {"measurement": "Clinical congestive heart failure", "setting": "[7]; eleven patients with prior doxorubicin, cumulative aldoxorubicin dose 1,000 to 7,500 mg/m^2", "value": "no patient developed any sign or symptom of clinical congestive heart failure"}, {"measurement": "Ventricular ejection fraction at end of treatment (range)", "setting": "[7]; end of treatment, baseline range 45-74%", "value": "50-77%"}, {"measurement": "Cardiac toxicity", "setting": "[7]; up to doxorubicin equivalent doses of 7,500 mg/m^2, alone or with ifosfamide/mesna", "value": "did not find any evidence of cardiac toxicity"}, {"measurement": "PFS hazard ratio (HR)", "setting": "soft tissue sarcoma", "value": 0.81}, {"measurement": "Cardiotoxicity", "setting": "[8]; Phase 3, 350 mg/m^2/cycle, up to 40 cycles, as compared to doxorubicin", "value": "minimal or no cardiotoxicity"}, {"measurement": "Subjects with LVEF below 50% of any post-baseline visit", "setting": "[8]; [14]", "value": "15 (7) n (%)"}, {"measurement": "Subjects with ≥ 20% LVEF decrease from baseline at any post-baseline visit", "setting": "[8]; [14]", "value": "9 (4.2) n (%)"}]}
{"smiles": "COc1cccc2c1C(=O)c1c(O)c3c(c(O)c1C2=O)C[C@@](O)(C(=O)CO)C[C@@H]3O[C@H]1C[C@H](N)[C@H](O)[C@H](C)O1", "note": "[Doxorubicin, reference compound]", "values": [{"measurement": "Allowable maximum cumulative lifetime dose", "setting": "[1]; limit set in view of cardiotoxicity", "value": 550, "unit": "mg/m^2"}, {"measurement": "Subjects with LVEF < 50% at any post-baseline cycle", "setting": "[3]", "value": "3 (8.6) n (%)"}, {"measurement": "Subjects with a 10% fall in LVEF", "setting": "[3]", "value": "10 (29.4) n (%)"}, {"measurement": "Median PFS", "setting": "[4]; [9]", "value": 83, "unit": "days"}, {"measurement": "PFS Events", "setting": "[4]; [10]", "value": 29}, {"measurement": "Median PFS", "setting": "[4]; [11]", "value": 82.0, "unit": "days"}, {"measurement": "PFS Events", "setting": "[4]; [12]", "value": 42}, {"measurement": "Median PFS", "setting": "[4]; [13]", "value": 48.0, "unit": "days"}, {"measurement": "Subjects with LVEF below 50% of any post-baseline visit", "setting": "[8]; [14]", "value": "9 (19.1) n (%)"}]}
